d = 2'-deoxy (DNA)
Columns and labels:
Assay type in all cases: cell-based, human
[1] = system: HPDE, Capan-1, AsPC-1, and BxPC-3 cells; assay: BrdU incorporation cell proliferation assay, all tested cell lines
Procedure: To assess cell proliferation and apoptosis, cells were plated in duplicates on a 96-well plate and incubated in 100 μl of the cell line appropriate media described above. Cells were transfected with siRNA soon after complete attachment (approx. 3 h after seeding). Cells were treated with vehicle, 20 μM gemcitabine, 20 μM T16Ainh-A01, or 10 μM free NS3728 (see below) after culture in a humidified 37 °C and 5 % CO2 incubator overnight. BrdU incorporation was measured using Cell Proliferation ELISA, BrdU (chemiluminescent) (Roche Diagnostics A/S, Denmark) following the manufacturer’s instructions. Caspases 3, 6, and 7 activation was evaluated using Homogeneous Caspases Assay (fluorimetric) (Roche Diagnostics A/S, Denmark).
Fig. 7 VRAC, but not ANO1, regulates cellular proliferation. a Summary of BrdU incorporation in HPDE, Capan-1, AsPC-1, and BxPC-3 cells after various treatments as indicated. Cells were transfected shortly after complete attachment (approx. 3 h) and BrdU incorporation was assessed 36 h after transfection. To investigate effect of inhibitors, cells were incubated for 24 h with respective inhibitor. Values shown are relative to appropriate control. Data shown represents mean ± s.e.m. of n = 4–6 individual experiments. **p ≤ 0.01 and ***p ≤ 0.001 when compared with control

BxPC-3 cells [2] = assay: Scratch wound healing assay; details: 5 μM aphidicolin; for effect on wound closure / migratory behavior: BxPC-3, inhibitor 20 μM
Procedure: Cells were seeded into Essen ImageLock 96-well plates. Cells were transfected with siRNA shortly after cells completely attached at 80 % confluency. […] The wound confluence was obtained and analyzed by using the IncuCyte phase-contrast imaging and scratch wound assay system and software (Essen Bioscience, USA). Wound closure was assessed by comparing the mean relative wound density (%RWD) according to the following formula: % RWD = 100 × w(t) − w(0)/[…]. Here, w(t) is the density of wounded area at time t and c(t) is the density of cell region at time t. Each experiment was conducted in triplicates.
We therefore assessed a possible contribution of ANO1 in PDAC cell migration using wound healing assay. […] The experiments were conducted in the presence of 5 μM aphidicolin to rule out a possible effect on cell proliferation. […] AsPC-1 cells were therefore not well suited for studies of lateral motility.
Fig. 9 ANO1 supports migration of PDAC cells. Wound healing assay is shown as relative wound density (density of wounded area relative to confluency of cell region) over time. Aphidicolin (5 μM) was added to stop proliferation. a AsPC-1 cells and b BxPC-3 cells after transfection with either scrambled siRNA (5 nM) or siRNA targeting ANO1 (50 nM). c BxPC-3 cells in presence of different inhibitors. Data shown represents mean ± s.e.m. of n = 4 experiments; each run was carried out in triplicates

BxPC-3 cells [3] = assay: Fura-2 measurement of free intracellular calcium, ATP stimulation; details: for effect on basal [Ca2+]i: BxPC-3, inhibitor 20 μM
Procedure: (§1) HPDE and BxPC-3 cells were incubated with 2 μM Fura-2 AM (Sigma-Aldrich, Denmark) for 30 min at 37 °C. Cells were subsequently washed with Krebs solution containing (in mM) 150 NaCl, 6 KCl, 1.5 CaCl2, 1 MgCl2, 10 glucose, and 10 HEPES; pH was adjusted to 7.4 using NaOH. Coverslips were mounted on a recording chamber. In the beginning of the experiment, cells were perfused with Krebs solution at 4 ml/min until baseline was stable. […] Changes in [Ca^2+]i were measured by a TIRF iMIC microscope (TILL Photonics, Germany). Fura-2 AM loaded cells were illuminated at 340 nm for 80 ms and 380 nm for 80 ms at 1 s intervals using a TILL Polychrome monochromator. Five hundred-nanometer emission images were captured by an image-intensifying, charge-coupled device (CCD) camera (TILL Photonics, Germany) and digitized by an image processing system (TILL Photonics, Germany). The monochromator and CCD camera were controlled by LA Live Acquisition software, which was also used for image analysis. The [Ca^2+]i was presented as the Fura-2 ratio of the fluorescence signals obtained at 340/380 nm.
(§2) Fig. 8 Cl^− channel inhibitors alter ATP-induced Ca^2+ signals. Intracellular Ca^2+ measurements in FURA-2 loaded HPDE and BxPC-3 cells. a Representative single-cell traces of individual experiments. Different substances were applied as indicated. […] (n) = number of individual experiments; each containing between 5–45 single cells.***p ≤ 0.001 when compared to no inhibitor condition; ^## p ≤ 0.01 when compared with HPDE no inhibitor
(§3) Activation of CaCC requires an increase in [Ca^2+]i, which can be achieved by stimulation of receptors such as purinergic receptors. Therefore, we studied the effect of Cl^− channel inhibitors on changes in [Ca^2+]i induced by purinergic signaling. We chose HPDE cells with very low expression levels of ANO1 and the highly ANO1 overexpressing cell line BxPC-3 for investigation. Fura-2 loaded HPDE and BxPC-3 cells were stimulated with ATP (10 μM) (Fig. 8) or exposed to the inhibitor prior to stimulation. ATP stimulation caused a 0.46 ± 0.03 peak increase in the Fura-2 ratio in HPDE and 0.55 ± 0.02 in BxPC-3 cells. […] However, no effect of the inhibitor on basal Ca^2+ level was observed.

HPDE cells = assay: as above; details: for effect on basal [Ca2+]i: inhibitor 20 μM
Procedure: as §1, §2, §3

Compound | proliferation (BrdU incorporation) ([1]; siRNA 50 nM vs mock 5 nM, 36 h after transfection, any of the tested cell lines) | migration decreased to (BxPC-3 cells [2]; BxPC-3, siRNA 50 nM, after 60 h) [%] | proliferation (BrdU incorporation) ([1]; ANO1-overexpressing cancer cells, 20 μM, 24 h) | effect on basal [Ca2+]i (BxPC-3 cells [3]) | ATP-induced change in Fura-2 ratio after inhibitor (BxPC-3 cells [3]; BxPC-3, inhibitor 20 μM before ATP 10 μM) | effect on basal [Ca2+]i (HPDE cells) | ATP-induced change in Fura-2 ratio after inhibitor (HPDE cells; inhibitor 20 μM before ATP 10 μM) | effect on wound closure / migratory behavior (BxPC-3 cells [2])
siRNA targeting ANO1: Predesigned siRNA oligo from Sigma-Aldrich, 5′-CCUUCAACGUCAGUGACUU[dT][dT]-3′, 5′-AAGUCACUGACGUUGAAGG[dT][dT]-3′ (RNA, 3' dTdT, backbone not given here) | did not cause any significant change in proliferation | 30 ± 8 |  |  |  |  |  | 
CCc1c(C)nc(SCC(=O)Nc2nc(-c3ccc(OC)cc3)cs2)[nH]c1=O [T16Ainh-A01, 2-[(5-Ethyl-1,6-dihydro-4-methyl-6-oxo-2-pyrimidinyl)thio]-N-[4-(4-methoxyphenyl)-2-thiazolyl]acetamide] |  |  | none of the ANO1-overexpressing cancer cells showed any significant decrease in proliferation | no effect | 0.42 ± 0.03 | no effect | 0.32 ± 0.03 | no detectable effect on migratory behavior
CC(C)(C)C1CCc2c(sc(NC(=O)c3ccco3)c2C(=O)O)C1 (centres unmarked) [CaCCinh-A01, 6-(1,1-dimethylethyl)-2-[(2-furanylcarbonyl)amino]-4,5,6,7-tetrahydrobenzo[b]thiophene-3-carboxylic acid] |  |  |  | reversible increase |  | reversible increase |  | seemed to slow down wound closure; however, this did not reach significance
